Assay results: ChEMBL document CHEMBL1201862, “PubChem BioAssay data set” (2004)
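Results reflect a 48-hour exposure of cells in 96-well plates to compound at five concentrations. GI50: concentration for 50% inhibition of growth.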 Activity calls are given as the source filed them. No stated cut-off is given here; in the data, active = GI50 up to about 1.1 µM and inactive = higher.

Experiments:
Assay in all cases: DTP human tumour cell line panel, 48 h
HOP-62 = tested on: HOP-62
NCI-H522 = tested on: NCI-H522
Malme-3M = tested on: Malme-3M
SK-MEL-5 = tested on: SK-MEL-5
HL-60 = tested on: HL-60
TK-10 = tested on: TK-10
SK-MEL-28 = tested on: SK-MEL-28
NCI-H460 = tested on: NCI-H460
UO-31 = tested on: UO-31
NCI-H226 = tested on: NCI-H226
UACC-62 = tested on: UACC-62
CAKI-1 = tested on: CAKI-1
UACC-257 = tested on: UACC-257
786-0 = tested on: 786-0
SF-268 = tested on: SF-268
SF-295 = tested on: SF-295
SN12C = tested on: SN12C

Measured: GI50

CC1(C)Oc2ccccc2N2O[C@@H]3C(=O)N(c4ccccc4)C(=O)[C@@H]3C21c1ccccc1 (stereo partly drawn)
inactive: HOP-62 16.8 µM | NCI-H522 28.7 µM | Malme-3M 21.8 µM | SK-MEL-5 23 µM | HL-60 > 10 µM | TK-10 17.9 µM | SK-MEL-28 29.2 µM | NCI-H460 28.9 µM | UO-31 66.1 µM | NCI-H226 55.3 µM | UACC-62 33.1 µM | CAKI-1 24.9 µM | UACC-257 34 µM | 786-0 16.6 µM | SF-268 33.9 µM | SF-295 15.7 µM

CNc1ccc(/C=C2\C=Cc3ccccc32)cc1
inactive: HOP-62 18.9 µM | NCI-H522 10.8 µM | SK-MEL-5 26.5 µM | HL-60 4.45 µM | TK-10 23.9 µM | SN12C 29.9 µM | SK-MEL-28 88.5 µM | NCI-H460 16.6 µM | UO-31 10.2 µM | NCI-H226 25.1 µM | UACC-62 20.1 µM | CAKI-1 30.1 µM | UACC-257 23.4 µM | 786-0 31.5 µM | SF-268 5.55 µM | SF-295 31.3 µM

CC1=CC(=O)C(C)(C2=NC(C)(C)CO2)c2ccccc21 (stereo not drawn)
inactive: HOP-62 > 100 µM | NCI-H522 > 100 µM | Malme-3M > 100 µM | SK-MEL-5 > 100 µM | HL-60 > 100 µM | TK-10 > 100 µM | SN12C > 100 µM | SK-MEL-28 > 100 µM | NCI-H460 > 100 µM | UO-31 > 100 µM | NCI-H226 > 100 µM | UACC-62 > 100 µM | CAKI-1 > 100 µM | UACC-257 > 100 µM | 786-0 > 100 µM | SF-268 > 100 µM | SF-295 > 100 µM

CC(C)(C)OC(=O)C1=C(O)C(C(=O)OC(C)(C)C)C23CCCCC12C(C(=O)OC(C)(C)C)C(O)=C3C(=O)OC(C)(C)C (stereo not drawn)
inactive: HOP-62 > 100 µM | NCI-H522 > 100 µM | Malme-3M > 100 µM | SK-MEL-5 > 100 µM | HL-60 > 100 µM | TK-10 > 100 µM | SN12C > 100 µM | NCI-H460 > 100 µM | UO-31 > 100 µM | NCI-H226 > 100 µM | UACC-62 > 100 µM | CAKI-1 > 100 µM | UACC-257 > 100 µM | 786-0 > 100 µM | SF-268 > 100 µM | SF-295 > 100 µM

O=S1OC2(c3ccccc3-c3ccccc32)c2ccccc21 (stereo not drawn)
inactive: HOP-62 40.6 µM | NCI-H522 > 100 µM | Malme-3M > 100 µM | SK-MEL-5 > 100 µM | HL-60 > 100 µM | TK-10 > 100 µM | SN12C > 100 µM | SK-MEL-28 > 100 µM | NCI-H460 > 100 µM | UO-31 > 100 µM | NCI-H226 > 100 µM | UACC-62 > 100 µM | UACC-257 > 100 µM | 786-0 > 100 µM | SF-295 > 100 µM

O=C(O)[C@H](NS(=O)(=O)c1ccc2ccccc2c1)c1ccccc1
inactive: NCI-H522 > 100 µM | Malme-3M > 100 µM | HL-60 > 100 µM | SN12C > 100 µM | SK-MEL-28 > 100 µM | NCI-H460 > 100 µM | UO-31 > 100 µM | UACC-62 > 100 µM | CAKI-1 > 100 µM | UACC-257 > 100 µM | 786-0 > 100 µM | SF-268 > 100 µM

Clc1ccc2cccc3c2c1C1OC3c2ccccc21 (stereo not drawn)
inactive: HOP-62 > 100 µM | NCI-H522 > 100 µM | Malme-3M 34.4 µM | HL-60 > 100 µM | TK-10 > 100 µM | SN12C > 100 µM | SK-MEL-28 > 100 µM | UO-31 > 100 µM | NCI-H226 > 100 µM | UACC-62 > 100 µM | UACC-257 > 100 µM | 786-0 > 100 µM | SF-268 > 100 µM | SF-295 > 100 µM

COC(=O)c1oc([N+](=O)[O-])c(-c2ccccc2)c1-c1ccccc1
inactive: HOP-62 > 100 µM | NCI-H522 > 100 µM | Malme-3M > 100 µM | SK-MEL-5 48.3 µM | TK-10 > 100 µM | SN12C > 100 µM | SK-MEL-28 > 100 µM | NCI-H460 > 100 µM | UO-31 > 100 µM | NCI-H226 > 100 µM | UACC-62 67 µM | CAKI-1 > 100 µM | UACC-257 > 100 µM | 786-0 > 100 µM | SF-268 > 100 µM | SF-295 > 100 µM

N#Cc1c(N)c(C(=O)O)nn(-c2cccc(C(F)(F)F)c2)c1=O
inactive: NCI-H522 39 µM | Malme-3M 60 µM | SK-MEL-5 53 µM | HL-60 > 100 µM | TK-10 > 100 µM | SN12C > 100 µM | SK-MEL-28 > 100 µM | NCI-H460 > 100 µM | UO-31 76.7 µM | UACC-62 76.9 µM | CAKI-1 > 100 µM | 786-0 > 100 µM | SF-268 > 100 µM | SF-295 > 100 µM

O=CC[C@H]1CCc2ccccc2C12CCC(=O)CC2
inactive: HOP-62 > 100 µM | NCI-H522 43.2 µM | Malme-3M 74.5 µM | SK-MEL-5 92.9 µM | HL-60 23.7 µM | SN12C 67.8 µM | NCI-H460 > 100 µM | UO-31 33.7 µM | NCI-H226 51.4 µM | UACC-62 92 µM | CAKI-1 > 100 µM | UACC-257 60.8 µM | 786-0 > 100 µM | SF-268 76.6 µM | SF-295 > 100 µM

CN(C)C(=S)/N=c1\ss/c(=N\C(=S)N(C)C)n1-c1ccc(Cl)cc1
inactive: HOP-62 > 100 µM | NCI-H522 87.9 µM | HL-60 > 100 µM | TK-10 > 100 µM | SN12C > 100 µM | SK-MEL-28 > 100 µM | NCI-H460 > 100 µM | UO-31 > 100 µM | NCI-H226 > 100 µM | UACC-62 > 100 µM | CAKI-1 > 100 µM | UACC-257 > 100 µM | 786-0 > 100 µM | SF-268 > 100 µM | SF-295 > 100 µM

Cn1cc(C(=O)C2CCCCC2)ccc1=O
inactive: HOP-62 > 100 µM | NCI-H522 > 100 µM | Malme-3M > 100 µM | SK-MEL-5 > 100 µM | HL-60 > 100 µM | TK-10 > 100 µM | SN12C > 100 µM | SK-MEL-28 > 100 µM | NCI-H460 > 100 µM | UO-31 > 100 µM | NCI-H226 > 100 µM | UACC-62 > 100 µM | CAKI-1 > 100 µM | 786-0 > 100 µM | SF-268 > 100 µM | SF-295 > 100 µM

O=C1C2C(C(=O)N1c1ccccc1)C1c3ccccc3C2C2C(=O)N(c3ccccc3)C(=O)C21 (stereo not drawn)
inactive: NCI-H522 2.46 µM | Malme-3M 3.9 µM | SK-MEL-5 4.44 µM | HL-60 2.9 µM | TK-10 > 100 µM | SN12C 5.48 µM | SK-MEL-28 26.2 µM | NCI-H460 3.71 µM | UO-31 12.7 µM | NCI-H226 28.6 µM | UACC-62 6.78 µM | CAKI-1 11.3 µM | UACC-257 > 100 µM | 786-0 3.89 µM | SF-268 5.56 µM | SF-295 3.48 µM
